Biological target: Aβ42 (Homo sapiens, UniProt P05067)
Experiment: Th-T (thioflavin-T) assay of Aβ42 aggregation
Assay type: biochemical
Conditions: for Th-T assay plate reading, mean of three wells (Supplementary Fig. 47): source data, Ab alone and No Ab as controls

Aβ42, sequence (P05067 672-713): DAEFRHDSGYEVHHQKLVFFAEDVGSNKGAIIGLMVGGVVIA

C=C1CCC2C(C)(CCC=C(C)C)C(O)CCC2(C)C1Cc1c(O)c(C)c(C)oc1=O (stereo not drawn) [Compound 4]
Th-T fluorescence, mean of three wells (Aβ42 aggregation time course, reading M117): 2.764 | Th-T fluorescence, mean of three wells (Aβ42 aggregation time course, reading M118): 2.782 | Th-T fluorescence, mean of three wells (Aβ42 aggregation time course, reading M119): 2.76 | Th-T fluorescence, mean of three wells (Aβ42 aggregation time course, reading M120): 2.773 | Th-T fluorescence, mean of three wells (Aβ42 aggregation time course, reading M121): 2.751 | Th-T fluorescence, mean of three wells (Aβ42 aggregation time course, reading M122): 2.756 | Th-T fluorescence, mean of three wells (Aβ42 aggregation time course, reading M123): 2.7381 | Th-T fluorescence, mean of three wells (Aβ42 aggregation time course, reading M124): 2.734 | Th-T fluorescence, mean of three wells (Aβ42 aggregation time course, reading M125): 2.771 | Th-T fluorescence, mean of three wells (Aβ42 aggregation time course, reading M126): 2.764 | Th-T fluorescence, mean of three wells (Aβ42 aggregation time course, reading M127): 2.744 | Th-T fluorescence, mean of three wells (Aβ42 aggregation time course, reading M128): 2.737 | Th-T fluorescence, mean of three wells (Aβ42 aggregation time course, reading M129): 2.759 | Th-T fluorescence, mean of three wells (Aβ42 aggregation time course, reading M130): 2.729 | Th-T fluorescence, mean of three wells (Aβ42 aggregation time course, reading M131): 2.75 | Th-T fluorescence, mean of three wells (Aβ42 aggregation time course, reading M132): 2.778 | Th-T fluorescence, mean of three wells (Aβ42 aggregation time course, reading M133): 2.76 | Th-T fluorescence, mean of three wells (Aβ42 aggregation time course, reading M134): 2.744 | Th-T fluorescence, mean of three wells (Aβ42 aggregation time course, reading M135): 2.723 | Th-T fluorescence, mean of three wells (Aβ42 aggregation time course, reading M136): 2.752 | Th-T fluorescence, mean of three wells (Supplementary Fig. 47, reading M137): 2.732 | Th-T fluorescence, mean of three wells (Supplementary Fig. 47, reading M138): 2.752 | Th-T fluorescence, mean of three wells (Supplementary Fig. 47, reading M139): 2.7362 | Th-T fluorescence, mean of three wells (Supplementary Fig. 47, reading M140): 2.723 | Th-T fluorescence, mean of three wells (Supplementary Fig. 47, reading M141): 2.765 | Th-T fluorescence, mean of three wells (Supplementary Fig. 47, reading M142): 2.731 | Th-T fluorescence, mean of three wells (Supplementary Fig. 47, reading M143): 2.798 | Th-T fluorescence, mean of three wells (Supplementary Fig. 47, reading M144): 2.748 | Th-T fluorescence, mean of three wells (Supplementary Fig. 47, reading M145): 2.777 | Th-T assay plate reading, mean of three wells (Supplementary Fig. 47) (measurement M1): 0.3186 | Th-T assay plate reading, mean of three wells (Supplementary Fig. 47) (measurement M2): 0.3159 | Th-T assay plate reading, mean of three wells (Supplementary Fig. 47) (measurement M3): 0.3554 | Th-T assay plate reading, mean of three wells (Supplementary Fig. 47) (measurement M4): 0.4086 | Th-T assay plate reading, mean of three wells (Supplementary Fig. 47) (measurement M5): 0.4658 | Th-T assay plate reading, mean of three wells (Supplementary Fig. 47) (measurement M6): 0.5438 | Th-T assay plate reading, mean of three wells (Supplementary Fig. 47) (measurement M7): 0.6121 | Th-T assay plate reading, mean of three wells (Supplementary Fig. 47) (measurement M8): 0.6677 | Th-T assay plate reading, mean of three wells (Supplementary Fig. 47) (measurement M9): 0.6972 | Th-T assay plate reading, mean of three wells (Supplementary Fig. 47) (measurement M10): 0.7395 | Th-T assay plate reading, mean of three wells (Supplementary Fig. 47) (measurement M11): 0.7934 | Th-T assay plate reading, mean of three wells (Supplementary Fig. 47) (measurement M12): 0.8591 | Th-T assay plate reading, mean of three wells (Supplementary Fig. 47) (measurement M13): 0.9703 | Th-T assay plate reading, mean of three wells (Supplementary Fig. 47) (measurement M14): 1.131 | Th-T assay plate reading, mean of three wells (Supplementary Fig. 47) (measurement M15): 1.366 | Th-T assay plate reading, mean of three wells (Supplementary Fig. 47) (measurement M16): 1.644 | Th-T fluorescence, mean of three wells (reading M17, Supplementary Fig. 47 source data): 1.91 | Th-T fluorescence, mean of three wells (time-course reading M97, Supplementary Fig. 47 source data): 2.7952 | Th-T fluorescence, mean of three wells (time-course reading M98, Supplementary Fig. 47 source data): 2.787 | Th-T fluorescence, mean of three wells (time-course reading M99, Supplementary Fig. 47 source data): 2.818 | Th-T fluorescence, mean of three wells (time-course reading M100, Supplementary Fig. 47 source data): 2.783 | Th-T fluorescence, mean of three wells (time-course reading M101, Supplementary Fig. 47 source data): 2.764 | Th-T fluorescence, mean of three wells (time-course reading M102, Supplementary Fig. 47 source data): 2.765 | Th-T fluorescence, mean of three wells (time-course reading M103, Supplementary Fig. 47 source data): 2.763 | Th-T fluorescence, mean of three wells (time-course reading M104, Supplementary Fig. 47 source data): 2.782 | Th-T fluorescence, mean of three wells (time-course reading M105, Supplementary Fig. 47 source data): 2.776 | Th-T fluorescence, mean of three wells (time-course reading M106, Supplementary Fig. 47 source data): 2.782 | Th-T fluorescence, mean of three wells (time-course reading M107, Supplementary Fig. 47 source data): 2.786 | Th-T fluorescence, mean of three wells (time-course reading M108, Supplementary Fig. 47 source data): 2.803 | Th-T fluorescence, mean of three wells (time-course reading M109, Supplementary Fig. 47 source data): 2.779 | Th-T fluorescence, mean of three wells (time-course reading M110, Supplementary Fig. 47 source data): 2.789 | Th-T fluorescence, mean of three wells (time-course reading M111, Supplementary Fig. 47 source data): 2.786 | Th-T fluorescence, mean of three wells (time-course reading M112, Supplementary Fig. 47 source data): 2.79 | Th-T fluorescence, mean of three wells (time-course reading M113, Supplementary Fig. 47 source data): 2.795 | Th-T fluorescence, mean of three wells (time-course reading M114, Supplementary Fig. 47 source data): 2.781 | Th-T fluorescence, mean of three wells (time-course reading M115, Supplementary Fig. 47 source data): 2.739 | Th-T fluorescence, mean of three wells (time-course reading M116, Supplementary Fig. 47 source data): 2.771

From publication PMC7156458, “Synthetic biology based construction of biological activity-related library of fungal decalin-containing diterpenoid pyrones” (Nature Communications, 2020)
